Patent publication US11026944B2, “Compositions and methods for treating insomnia” (Eisai R&D Management Co., Ltd., priority 2014, dated 2021)
Read-outs that look alike come from different tables or passages of the source.

How the values were obtained:
subjects with insomnia = experiment: 201 Study: population PK and PK/PD analysis; type: in vivo, human
Description: During the Treatment period, blood samples for plasma concentrations of compound A were obtained within 30 minutes predose each night (except on Day 1) in the clinic and within 1 hour of morning waketime following each night spent in the clinic. Plasma concentrations of compound A were measured using a validated liquid chromatography-tandem mass spectrometry (LC-MS/MS) assay.
The PK/PD Analysis Set was used to evaluate relationships between compound A concentrations and selected PD parameters. The relationships between exposure to compound A and selected PD endpoints (eg. KSS, DSST, RTI) were explored graphically and could be followed by population PK/PD modeling. The relationship between plasma concentrations of compound A at predose (trough), and within 1 hour after morning waketime, and selected PD parameters, was analyzed using Nonmem version 7.2 or later.
Measures of the PD effects of compound A included KSS, RTI, DSST, the WFB (RTI, Rapid Visual Processing [RVP], and Spatial Span [SSP]), POMS, melatonin levels, and the DLMO. Due to high variability and non-normal distribution in change from baseline of LPS, it was not possible to reliably model the concentration-response relationship between compound A PK parameters and LPS. Nonetheless, higher plasma concentrations of compound A were associated with larger decreases in LPS, up to approximately 10 ng/mL. This finding was consistent with the efficacy results, where LPS was decreased at doses of 2.5 mg and higher. […] When modeled, WASO data were best described by log-linear relationships with the maximum observed concentration (Cmax). […] However, subjects whose compound A plasma concentrations were greater than 20 ng/mL at 1 hour after waking had slightly greater increases on the KSS and a higher incidence of AEs of somnolence. This concentration is predicted to be achieved by most subjects receiving doses greater than 10 mg.

[1] = Multiple ascending dose study (002 Study): plasma PK; type: in vivo, human; conditions: for concentration at 8 h / concentration at 10 h / AUC(0-t) / Cmax / Tmax / half-life: human, oral; for concentration at 8 h: plasma at 8 h, read-out: C8 Mean(SD); for concentration at 10 h: plasma at 10 h, read-out: C10 Mean(SD); for AUC(0-t) / Cmax / Tmax / half-life: plasma; for AUC(0-t): read-out: AUC(0-24) Mean(SD); for Cmax: read-out: Cmax Mean(SD); for Tmax: read-out: tmax Median
Description: A total of 48 healthy adult subjects (18 to 55 years) were to be enrolled into 1 of 6 cohorts sequentially in a gradual dose escalation manner, and randomized to receive either compound A or compound A-matched placebo in the evening 30 minutes before habitual bedtime, and after 3 hours fasting, for 14 days. Each cohort was to comprise 6 compound A-treated subjects and 2 placebo-treated subjects. Blood samples were collected for PK analysis at prespecified timepoints, and PD assessments were conducted.
Blood samples for determination of plasma concentrations of compound A were collected at Day 1 predose and postdose 0.5 (30 minutes), 1, 1.5, 2, 3, 4, 5, 6, 8, 10, and 12 hours; Days 2 to 13: predose; Day 14: predose and postdose 0.5 (30 minutes), 1, 1.5, 2, 3, 4, 5, 6, 8, 10, and 12 hours; Day 15: 24 hours after Day 14 dose; Days 16 to 19: 36, 60, 84, and 108 hours after Day 14 dose; Day 21, 24, 26, 28: As close as possible to 156, 228, 276, and 324 hours after Day 14 dose. Plasma concentrations of compound A were measured in the same manner as described in Example 1 and the above noncompartmental plasma PK parameters were calculated for compound A.
Compound A capsules and compound A-matched placebo capsules were available in strengths of 2.5 mg, 10 mg, and 50 mg. All study drugs were administered as daily doses using one or more compound A-capsules or compound A-matched placebo capsules due to the test dose.

[2] = 2.5 mg, Day 1, 2.5 mg once daily in the evening
[3] = 2.5 mg, Day 14, 2.5 mg once daily for 14 days
[4] = 5 mg, Day 1, 5 mg once daily in the evening
[5] = 5 mg, Day 14, 5 mg once daily for 14 days
[6] = 10 mg, Day 1, 10 mg once daily in the evening
[7] = 10 mg, Day 14, 10 mg once daily for 14 days
[8] = 25 mg, Day 1, 25 mg once daily in the evening
[9] = 25 mg, Day 14, 25 mg once daily for 14 days
[10] = 50 mg, Day 1, 50 mg once daily in the evening
[11] = 50 mg, Day 14, 50 mg once daily for 14 days
[12] = 75 mg, Day 1, 75 mg once daily in the evening
[13] = 75 mg, Day 14, 75 mg once daily for 14 days

SMILES: Cc1ncc(OC[C@@]2(c3cccc(F)c3)C[C@H]2C(=O)Nc2ccc(F)cn2)c(C)n1 [Compound A, (1R,2 S)-2-(((2,4-dimethylpyrimidin-5-yl)oxy)methyl)-2-(3-fluorophenyl)-N-(5-fluoropyridin-2-yl) cyclopropanecarboxamide]
- next-day residual sleepiness (KSS, DSST, RTI) vs time-matched plasma concentrations (subjects with insomnia; PK/PD analyses): did not show any apparent relationship
- exposure-response relationship for WASO (subjects with insomnia; PK/PD model): log-linear relationship with Cmax
- plasma concentration up to which higher concentrations were associated with larger decreases in LPS (subjects with insomnia; asymptote above this concentration): approximately 10 ng/mL
- plasma concentration associated with slightly greater increases on the KSS and higher incidence of AEs of somnolence (subjects with insomnia; at 1 hour after waking): greater than 20 ng/mL
- Apparent clearance (subjects with insomnia; population PK): independent of dose and time
- PK model (subjects with insomnia; population PK): 2-compartment model with elimination from the central compartment
- doses predicted to achieve plasma concentration greater than 20 ng/mL at 1 hour after waking in most subjects (subjects with insomnia; predicted): greater than 10 mg
- Accumulation ([1]; 14 days once daily): lower than predicted by the terminal half-life
- Cmax Mean(SD) ([1]; Day 1, 25 mg once daily in the evening): 92.0(24.0) ng/mL
- t1/2 Mean(SD) ([1]; Day 14, 50 mg once daily for 14 days): 55.5(21.3) h
- AUC(0-24 h) dose proportionality ([1]; dose-normalized data, Day 1): increased slightly less than in proportion to dose
- Cmax dose proportionality ([1]; dose-normalized data, Day 1 and Day 14): increased slightly less than in proportion to dose
- AUC(0-24 h) dose proportionality ([1]; dose-normalized data, Day 14): increased in approximate proportion to dose
- concentration at 8 h ([1]; Day 1, 2.5 mg): 2.33 ng/mL
- concentration at 8 h ([1]; Day 1, 5 mg): 4.4 ng/mL
- concentration at 8 h ([1]; Day 1, 10 mg): 8.51 ng/mL
- concentration at 8 h ([1]; Day 1, 25 mg): 24.1 ng/mL
- concentration at 8 h ([1]; Day 1, 50 mg): 38.1 ng/mL
- concentration at 8 h ([1]; Day 1, 75 mg): 54.5 ng/mL
- concentration at 10 h ([1]; Day 1, 2.5 mg): 2.04 ng/mL
- concentration at 10 h ([1]; Day 1, 5 mg): 3.63 ng/mL
- concentration at 10 h ([1]; Day 1, 10 mg): 7.72 ng/mL
- concentration at 10 h ([1]; Day 1, 25 mg): 19.8 ng/mL
- concentration at 10 h ([1]; Day 1, 50 mg): 32.9 ng/mL
- concentration at 10 h ([1]; Day 1, 75 mg): 44.2 ng/mL
- AUC(0-t) [1, 2]: 59.4 ng·h/mL
- Cmax [1, 2]: 10.1 ng/mL
- Tmax [1, 2]: 2.02 h
- AUC(0-t) [1, 3]: ~120 ng·h/mL
- Cmax [1, 3]: ~15 ng/mL
- half-life ([1]; 2.5 mg, Day 14, 2.5 mg once daily for 14 days, read-out: t1/2 Mean(SD) (converted)): ~44 h
- Tmax [1, 3]: ~2 h
- AUC(0-t) [1, 4]: 108 ng·h/mL
- Cmax [1, 4]: 19.4 ng/mL
- Tmax [1, 4]: 1.25 h
- AUC(0-t) [1, 5]: ~190 ng·h/mL
- Cmax [1, 5]: ~24 ng/mL
- half-life ([1]; 5 mg, Day 14, 5 mg once daily for 14 days, read-out: t1/2 Mean(SD) (converted)): ~46 h
- Tmax [1, 5]: ~1 h
- AUC(0-t) [1, 6]: 187 ng·h/mL
- Cmax [1, 6]: 30.4 ng/mL
- Tmax [1, 6]: 3.25 h
- AUC(0-t) [1, 7]: ~360 ng·h/mL
- Cmax [1, 7]: ~47 ng/mL
- half-life ([1]; 10 mg, Day 14, 10 mg once daily for 14 days, read-out: t1/2 Mean(SD) (converted)): ~55 h
- Tmax [1, 7]: ~2 h
- half-life ([1]; 10 mg, doses of 10 mg and higher, following Day 14 dosing, read-out: mean terminal half-life (converted)): ~55 h
- AUC(0-t) [1, 8]: 549 ng·h/mL
- Tmax [1, 8]: 1.5 h
- AUC(0-t) [1, 9]: 1100 ng·h/mL
- Cmax [1, 9]: 107 ng/mL
- half-life ([1]; 25 mg, Day 14, 25 mg once daily for 14 days, read-out: t1/2 Mean(SD) (converted)): 50.6 h
- Tmax [1, 9]: 3 h
- half-life ([1]; 50 mg, 50-mg dose, read-out: effective half-life based on accumulation (converted)): 28 h
- AUC(0-t) [1, 10]: 931 ng·h/mL
- Cmax [1, 10]: 199 ng/mL
- Tmax [1, 10]: 2 h
- AUC(0-t) [1, 11]: 2300 ng·h/mL
- Cmax [1, 11]: 220 ng/mL
- Tmax [1, 11]: 2.02 h
- half-life ([1]; 75 mg, 75-mg dose, read-out: effective half-life based on accumulation (converted)): 39.3 h
- AUC(0-t) [1, 12]: 1260 ng·h/mL
- Cmax [1, 12]: 223 ng/mL
- Tmax [1, 12]: 3 h
- AUC(0-t) [1, 13]: 3790 ng·h/mL
- Cmax [1, 13]: 420 ng/mL
- half-life ([1]; 75 mg, Day 14, 75 mg once daily for 14 days, read-out: t1/2 Mean(SD) (converted)): 56.2 h
- Tmax [1, 13]: 2 h
- half-life ([1]; 2.5- and 5-mg doses, average, read-out: terminal half-life (converted)): ~45 h
- half-life ([1]; doses ranging from 2.5 to 25 mg, read-out: effective half-life based on accumulation (converted)): 16.9 to 24.7 h
